According to patent US9284308B2, “Methylene linked quinolinyl modulators of RORγt” (Janssen Pharmaceutica NV, priority 2013, dated 2016):
Where “and” joins values, the source holds several entries; their conditions need not be identical. Equal values may be shown once. Where a name gives a salt, the structure may show the parent alone.

Legend:
human RORγt LBD = target: T1, human RORγt LBD (Homo sapiens, UniProt P51449); assay: RORγt (LBD) reporter assay in HEK293T cells; type: cell-based; settings: for inhibition at 6 µM: HEK-293T, read-out: RORγt (LBD) Reporter Assay, % inhibition @ 6 μM, 6 μM compound; for RORγt (LBD) Reporter Assay, % inhibition @ 6 μM: 6 μM compound
T1 construct: expressed in transfected cells; host or cells: HEK293T
T1 sequence (P51449 258-518): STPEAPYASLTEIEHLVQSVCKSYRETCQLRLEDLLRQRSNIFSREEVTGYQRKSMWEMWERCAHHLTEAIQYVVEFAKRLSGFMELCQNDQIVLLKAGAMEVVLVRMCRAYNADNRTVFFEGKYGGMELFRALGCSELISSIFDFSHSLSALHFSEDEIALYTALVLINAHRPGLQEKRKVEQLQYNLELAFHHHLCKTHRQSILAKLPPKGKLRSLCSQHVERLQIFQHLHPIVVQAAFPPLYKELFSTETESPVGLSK
Source text: RORγt (LBD) Reporter Assay
Cells used in the assay were co-transfected with two constructs. The first construct, pBIND-RORγt LBD, contained the wild type human RORγt LBD fused to the DNA binding domain of the GAL4 protein. The second construct, pGL4.31 (Promega Cat no. C935A), contained multiple GAL4 responsive DNA elements upstream of firefly luciferase. […] The mutant construct was called pBIND-RORγt-AF2.
The pBIND vector contains the GAL4 DNA Binding Domain (GAL4 DBD) and the renilla luciferase gene under control of the SV40 promoter. Renilla luciferase expression serves as a control for transfection efficiency and cell viability.
The reporter assay was performed by transiently transfecting HEK293T cells with 5 μg of pBIND-RORγt LBD or pBIND-RORγt LBD-AF2 and 5 μg pGL4.31 (Promega Cat no. C935A) using Fugene 6 (Invitrogen Cat no. E2691) at a 1:6 ratio of DNA:Fugene 6 in a T-75 flask in which cells were at least 80% confluent. Twenty four hours after bulk transfection, cells were plated into 96-well plates at 50,000 cells/well in phenol-red free DMEM containing 5% Lipid Reduced FCS and Pen/Strep. Six hours after plating, cells were treated with compounds for 24 hours. Media was removed and cells were lysed with 50 μL 1× Glo Lysis Buffer (Promega). Dual Glo Luciferase Reagent (50 μL/well) was then added and firefly luciferase luminescence was read on an Envision after a ten minute incubation. Finally, Stop and Glo reagent (50 μL/well) was added and renilla luciferase luminescence was read on an Envision after a ten minute incubation. […] Agonist compounds increase RORγt-driven luciferase expression, and antagonist or inverse agonist compounds decrease luciferase expression.

[1] = target: T2, human RORγt ligand binding domain (RORγt LBD) (Homo sapiens, UniProt P51449); assay: RORγt ThermoFluor assay (ligand binding affinity from protein thermal stability)
T2 construct: His-tag (N); TurboTEV protease cleavage site (ENLYFQG) (N); made in house; host or cells: E. coli (pHIS1, modified pET vector)
T2 sequence (P51449 with tags, fused parts or gaps): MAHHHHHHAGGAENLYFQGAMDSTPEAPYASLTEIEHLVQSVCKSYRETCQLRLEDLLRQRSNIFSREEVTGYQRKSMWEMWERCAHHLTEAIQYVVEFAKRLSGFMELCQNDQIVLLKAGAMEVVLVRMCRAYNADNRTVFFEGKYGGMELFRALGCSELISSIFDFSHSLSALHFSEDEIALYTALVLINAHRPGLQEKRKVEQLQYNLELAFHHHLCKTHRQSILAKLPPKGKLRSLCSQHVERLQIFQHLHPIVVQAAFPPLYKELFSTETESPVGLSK
Description: This approach is applicable to a wide variety of systems, and rigorous in theoretical interpretation through quantitation of equilibrium binding constants (KD).
The shift in the melting point described as a ΔTm is proportional to the concentration and affinity of the ligand.
RORγt ThermoFluor® Assay Construct
Protein and compound solutions are dispensed into black 384-well polypropylene PCR microplates (Abgene) and overlayed with silicone oil (1 μL, Fluka, type DC 200) to prevent evaporation.
Bar-coded assay plates are robotically loaded onto a thermostatically controlled PCR-type thermal block and then heated at a typical ramp-rate of 1° C./min for all experiments. Fluorescence was measured by continuous illumination with UV light (Hamamatsu LC6) supplied via fiber optic and filtered through a band-pass filter (380-400 nm; >6 OD cutoff). Fluorescence emission of the entire 384-well plate was detected by measuring light intensity using a CCD camera (Sensys, Roper Scientific) filtered to detect 500±25 nm, resulting in simultaneous and independent readings of all 384 wells. Images were collected at each temperature, and the sum of the pixel intensity in a given area of the assay plate was recorded versus temperature. Reference wells contained RORγt without compounds, and the assay conditions were as follows: • 0.065 mg/mL RORγt • 60 μM 1,8-ANS • 100 mM Hepes, pH 7.0 • 10 mM NaCl • 2.5 mM GSH • 0.002% Tween-20
Project compounds were arranged in a pre-dosed mother plate (Greiner Bio-one) wherein compounds are serially diluted in 100% DMSO by 1:2 from a high concentration of 10 mM over 12 columns within a series (column 12 is a reference well containing DMSO, no compound). The compounds were robotically dispensed directly into assay plates (1×=[…]) using a Hummingbird capillary liquid handling instrument (Digilab). Following compound dispense, protein and dye in buffer was added to achieve the final assay volume of 3 μL, followed by 1 μL of silicone oil.

IC50 (human RORγt LBD) | inhibition at 6 µM (human RORγt LBD) [%] | Kd [1] [nM] | RORγt (LBD) Reporter Assay, % inhibition @ 6 μM (human RORγt LBD) [%] | Structure (SMILES)
 |  |  | 89 | COc1c(Cc2ccccc2)c(C(F)(F)F)nc2ccc(C(O)(c3ccc(Cl)cc3)c3cncn3C)cc12 (single isomer, unassigned) [Example 101c, (3-Benzyl-4-methoxy-2-(trifluoromethyl)quinolin-6-yl)(4-chlorophenyl)(1-methyl-1H-imidazol-5-yl)methanol]
~2000 nM |  | 1200 |  | Cn1cncc1C(O)(c1ccc(C(F)(F)F)nc1)c1ccc2nc(-c3nccn3C)c(Cc3ccccc3)c(Cl)c2c1 (single isomer, unassigned) [Example 113c, (3-Benzyl-4-chloro-2-(1-methyl-1H-imidazol-2-yl)quinolin-6-yl)(1-methyl-1H-imidazol-5-yl)(6-(trifluoromethyl)pyridin-3-yl)methanol•TFA]
480 nM |  | 58 |  | CC(=O)N1CCC(C(O)(c2ccc3nc(C(F)(F)F)c(Cc4ccccc4)c(Cl)c3c2)c2cncn2C)CC1 (single isomer, unassigned) [Example 115b, 1-(4-((3-Benzyl-4-chloro-2-(trifluoromethyl)quinolin-6-yl)(hydroxy)(1-methyl-1H-imidazol-5-yl)methyl)piperidin-1-yl)ethanone•TFA]
110 nM |  | 17 |  | CC(=O)N1CCC(C(O)(c2ccc3nc(C(F)(F)F)c(Cc4ccccc4)c(Cl)c3c2)c2cncn2C)CC1 (single isomer, unassigned) [Example 115c, 1-(4-((3-Benzyl-4-chloro-2-(trifluoromethyl)quinolin-6-yl)(hydroxy)(1-methyl-1H-imidazol-5-yl)methyl)piperidin-1-yl)ethanone•TFA]
> 6000 nM |  | 130 |  | COc1nc2ccc(C(N)(c3ccc(C(F)(F)F)nc3)c3cncn3C)cc2c(Cl)c1Cc1ccccc1 (single isomer, unassigned) [Example 120b, (3-Benzyl-4-chloro-2-methoxyquinolin-6-yl)(1-methyl-1H-imidazol-5-yl)(6-(trifluoromethyl)pyridin-3-yl)methanamine•TFA]
~6000 nM |  | 1100 |  | COc1nc2ccc(C(N)(c3ccc(C(F)(F)F)nc3)c3cncn3C)cc2c(Cl)c1Cc1ccccc1 (single isomer, unassigned) [Example 120c, (3-Benzyl-4-chloro-2-methoxyquinolin-6-yl)(1-methyl-1H-imidazol-5-yl)(6-(trifluoromethyl)pyridin-3-yl)methanamine•TFA]

Further lines, the compound ahead of its results:

Structure (SMILES) | IC50 (human RORγt LBD) | inhibition at 6 µM (human RORγt LBD) [%] | Kd [1] [nM] | RORγt (LBD) Reporter Assay, % inhibition @ 6 μM (human RORγt LBD) [%]
COc1nc2ccc(C(O)(c3ccc(Cl)cc3)c3cncn3C)cc2c(Cl)c1Cc1ccc(C(F)(F)F)nc1 (single isomer, unassigned) [Example 39b] | 1200 nM | 86 | 1100 | 
COc1nc2ccc(C(O)(c3ccc(C)nc3C)c3cnnn3C)cc2c(Cl)c1Cc1ccc(F)cc1 (single isomer, unassigned) [Example 48b, (4-Chloro-3-(4-fluorobenzyl)-2-methoxyquinolin-6-yl)(2,6-dimethylpyridin-3-yl)(1-methyl-1H-1,2,3-triazol-5-yl)methanol] | ~6000 nM | 53 | 250 | 
COc1nc2ccc(C(O)(c3ccc(C)nc3C)c3cnnn3C)cc2c(C#N)c1Cc1ccc(F)cc1 (single isomer, unassigned) [Example 49b, 6-((2,6-Dimethylpyridin-3-yl)(hydroxy)(1-methyl-1H-1,2,3-triazol-5-yl)methyl)-3-(4-fluorobenzyl)-2-methoxyquinoline-4-carbonitrile] | ~3000 nM |  | 410 | 62
COc1nc2ccc(C(O)(c3ccc(C)nc3C)c3cnnn3C)cc2c(C#N)c1Cc1ccc(F)cc1 (single isomer, unassigned) [Example 49c, 6-((2,6-Dimethylpyridin-3-yl)(hydroxy)(1-methyl-1H-1,2,3-triazol-5-yl)methyl)-3-(4-fluorobenzyl)-2-methoxyquinoline-4-carbonitrile] | 38 nM and ~20 nM |  | 2.7 | 83
COc1nc2ccc(C(O)(c3cnnn3C)c3cnc(C)n3C)cc2c(Cl)c1Cc1ccc(F)cc1 (single isomer, unassigned) [Example 65b] | 22 nM | 74 | 0.095 | 
COc1nc2ccc(C(O)(c3cnnn3C)c3cnc(C)n3C)cc2c(Cl)c1Cc1ccc(F)cc1 (single isomer, unassigned) [Example 65c] | 7.2 nM |  | 0.48 | 
Cn1cncc1C(O)(c1ccc(C(F)(F)F)nc1)c1ccc2nc(-n3cccn3)c(Cc3ccccc3)c(C#N)c2c1 (single isomer, unassigned) [Example 114b, 3-Benzyl-6-(hydroxy(1-methyl-1H-imidazol-5-yl)(6-(trifluoromethyl)pyridin-3-yl)methyl)-2-(1H-pyrazol-1-yl)quinoline-4-carbonitrile•TFA] | 1400 nM |  | 120 | 
Cn1cncc1C(O)(c1ccc(C(F)(F)F)nc1)c1ccc2nc(-n3cccn3)c(Cc3ccccc3)c(C#N)c2c1 (single isomer, unassigned) [Example 114c, 3-Benzyl-6-(hydroxy(1-methyl-1H-imidazol-5-yl)(6-(trifluoromethyl)pyridin-3-yl)methyl)-2-(1H-pyrazol-1-yl)quinoline-4-carbonitrile•TFA] | 1900 nM |  | 710 | 
CCN(CC)c1nc2ccc(C(O)(c3ccc(Cl)cc3)c3cncn3C)cc2c(C#N)c1Cc1ccc(-n2cccn2)cc1 (single isomer, unassigned) [Example 154b, 3-(4-(1H-pyrazol-1-yl)benzyl)-6-((4-chlorophenyl)(hydroxy)(1-methyl-1H-imidazol-5-yl)methyl)-2-(diethylamino)quinoline-4-carbonitrile] |  | 101 |  | 
CCN(CC)c1nc2ccc(C(O)(c3ccc(Cl)cc3)c3cncn3C)cc2c(C#N)c1Cc1ccc(-n2cccn2)cc1 (single isomer, unassigned) [Example 154c, 3-(4-(1H-pyrazol-1-yl)benzyl)-6-((4-chlorophenyl)(hydroxy)(1-methyl-1H-imidazol-5-yl)methyl)-2-(diethylamino)quinoline-4-carbonitrile] |  | 73 |  | 
COc1c(Cc2ccccc2)c(C(F)(F)F)nc2ccc(C(O)(c3ccc(C(F)(F)F)nc3)c3cncn3C)cc12 (centres unmarked) [Example 106a, (3-Benzyl-4-methoxy-2-(trifluoromethyl)quinolin-6-yl)(1-methyl-1H-imidazol-5-yl)(6-(trifluoromethyl)pyridin-3-yl)methanol•TFA] | ~4000 nM |  |  | 
